In patent publication US20230322735A1, “AZETIDINYL TRYPTAMINES AND METHODS OF TREATING PSYCHIATRIC DISORDERS” (priority 2020, published 2023):

Assay: Chemical stability of the product on storage and analysis
Format: physicochemical
Method: Note: The product 2 is unstable and should be stored frozen, protected from light, and under inert gas. If stored properly, stability has been confirmed by qNMR for at least 1 month.
A mixture of 3-(2-(azetidin-1-yl)ethyl)-1H-indol-4-ol (2, 50 mg, 231.18 μmol, 1 eq) and pyridine (23.77 mg, 300.54 μmol, 24.26 μL, 1.3 eq) in DCM (1 mL) was cooled to 0° C. Then acetic anhydride (25.96 mg, 254.30 μmol, 23.82 μL, 1.1 eq) was added dropwise at 0° C. and the resulting mixture was stirred at 25° C. for 1 h. At this time, the solvent was removed and the residue was purified by prep-HPLC (column=Waters Xbridge BEH C18 (100*30 mm, 10 μm); mobile phase=water(NH4HCO3)-ACN, B %=5%-40%; 10 min run time) to provide 3-(2-(azetidin-1-yl)ethyl)-1H-indol-4-yl acetate (4) as a white solid (20 mg, 33% yield). ^1H NMR (400 MHz, DMSO-d6) δ 11.01 (br s, 1H), 7.22 (d, J=8.0 Hz, 1H), 7.11 (d, J=1.6 Hz, 1H), 7.02 (t, J=8.0 Hz, 1H), 6.64 (d, J=7.6 Hz, 1H), 3.09 (t, J=6.8 Hz, 4H), 2.57-2.54 (m, 4H), 2.32 (s, 3H), 1.96-1.90 (m, 2H); LCMS (RT=0.983 min, MS calc.: 258.14, [M+H]+=259.1).

With Oc1cccc2[nH]cc(CCN3CCC3)c12 [Compound 2, 3-(2-(azetidin-1-yl)ethyl)-1H-indol-4-ol] the “stability of the product (in words)” value (storage) was “unstable” and the “time for which stability was confirmed by qNMR” value (stored frozen, protected from light, under inert gas) was “at least 1 month”.
